Results from patent US4746736A, “Carbapenem antibiotics” (priority 1986, dated 1988).
≈ marks a conversion by molar mass, not a printed value. Like-named read-outs stand apart in the source and are kept apart here.

How the values were obtained:
[1] = system: S. pneumoniae A-9585; test: In vitro MIC by tube dilution, S. pneumoniae A-9585; assay type: cell-based
[2] = system: S. pyogenes A9604; test: In vitro MIC by tube dilution, S. pyogenes A9604; assay type: cell-based
[3] = system: S. aureus A-9537; test: In vitro MIC by tube dilution, S. aureus A-9537; assay type: cell-based
[4] = system: S. aureus A-9606 (Pen-res.); test: In vitro MIC by tube dilution, S. aureus A-9606 (Pen-res.); assay type: cell-based; details: S. aureus A-9606 (Pen-res)
[5] = system: S. faecalis A20688; test: In vitro MIC by tube dilution, S. faecalis A20688; assay type: cell-based
[6] = system: E. coli A15119; test: In vitro MIC by tube dilution, E. coli A15119; assay type: cell-based; details: E. coli A15119
[7] = system: E. coli A20341-1; test: In vitro MIC by tube dilution, E. coli A20341-1; assay type: cell-based
[8] = system: K. pneumoniae A-9664; test: In vitro MIC by tube dilution, K. pneumoniae A-9664; assay type: cell-based
[9] = system: K. pneumoniae A20468; test: In vitro MIC by tube dilution, K. pneumoniae A20468; assay type: cell-based
[10] = system: P. mirabilis A-9900; test: In vitro MIC by tube dilution, P. mirabilis A-9900; assay type: cell-based
[11] = system: P. vulgaris A21559; test: In vitro MIC by tube dilution, P. vulgaris A21559; assay type: cell-based
[12] = system: P. morganii A15153; test: In vitro MIC by tube dilution, P. morganii (M. morganii) A15153; assay type: cell-based
[13] = system: P. rettgeri A22424; test: In vitro MIC by tube dilution, P. rettgeri A22424; assay type: cell-based
[14] = system: S. marcescens A20019; test: In vitro MIC by tube dilution, S. marcescens A20019; assay type: cell-based
[15] = system: E. cloacae A-9656; test: In vitro MIC by tube dilution, E. cloacae A-9656; assay type: cell-based
[16] = system: P. aeruginosa A-9843A; test: In vitro MIC by tube dilution, P. aeruginosa A-9843A; assay type: cell-based; details: P. aeruginosa A-9843a
[17] = system: P. aeruginosa A21213; test: In vitro MIC by tube dilution, P. aeruginosa A21213; assay type: cell-based; details: P. aeruginosa A21213
[18] = system: E. cloacae A-9659; test: In vitro MIC by tube dilution, E. cloacae A-9659; assay type: cell-based
[19] = system: P. aeruginosa A-9843a; assay type: in vivo; details: P. aeruginosa A9843A, mice, i.m.
Experimental: The PD50 (dose in mg/kg required to give protection to 50% of the infected mice) is indicated.
Treatment Schedule: Except for E. coli A15119 and K. pneumoniae A9964,
mice were treated i.m. with drugs 0 and 2 hours postinfection.
5 mice per dose were used for each test
The PD50 (dose in mg/kg) required to give protection to 50% of the infected mice is indicated.

[20] = Blood levels in mice after intramuscular administration; details: 20 mg/kg i.m., mice (compiled table)
Text: Compounds were solubilized in 0.1 M phosphate buffer pH 7.
Values are from a single test; 4 mice used per compound.
Compounds were solubilized in 0.1 M phosphate buffer, pH 7.
Values based on a single test; 4 mice per compound.

[21] = system: H. influenzae A-9833; test: In vitro MIC by tube dilution, H. influenzae A-9833; assay type: cell-based; details: Haemophilus influenzae, A9833
[22] = system: H. influenzae A21518; test: In vitro MIC by tube dilution, H. influenzae A21518; assay type: cell-based; details: Haemophilus influenzae
[23] = Staphylococcus aureus, A9537, S. aureus A-9537, no serum, read-out: MIC
[24] = Staphylococcus aureus, read-out: MIC
[25] = Klebsiella pneumoniae, A9664, read-out: MIC
[26] = Proteus mirabilis, A9900, P. mirabilis A-9900, read-out: MIC
[27] = Morganella morganii, A15153, M. morganii A15153, read-out: MIC
[28] = Providencia rettgeri, A22424, P. rettgeri A22424, read-out: MIC
[29] = Serratia marcescens, read-out: MIC
[30] = Enterobacter cloacae, A9656, E. cloacae A-9656, read-out: MIC

Row | Compound | MIC ([1]; S. pneumoniae A-9585) [ng/mL] | MIC ([2]; S. pyogenes A-9604) [ng/mL] | MIC ([3]; S. aureus A-9537 +50% serum) [µg/mL] | MIC ([3]; S. aureus A-9537, no serum) [µg/mL] | MIC [4] [µg/mL] | MIC ([5]; S. faecalis A20688) [µg/mL] | MIC [6] [ng/mL] | MIC [7] [ng/mL] | MIC [8] [µg/mL] | MIC ([9]; K. pneumoniae A20468) [µg/mL] | MIC ([10]; P. mirabilis A-9900) [µg/mL] | MIC ([11]; P. vulgaris A21559) [µg/mL] | MIC ([12]; M. morganii A15153) [µg/mL] | MIC ([13]; P. rettgeri A22424) [µg/mL] | MIC [14] [µg/mL] | MIC ([15]; E. cloacae A-9656) [µg/mL] | MIC [16] [µg/mL] | MIC [17] [µg/mL] | MIC ([18]; E. cloacae A-9659) [µg/mL] | AUC [20] [µg·h/mL] | other results
1 | 3-[4-(N,N-dimethyl-1,2,3-triazolium)methylthio]-6α-[1-(R)-hydroxyethyl]-7-oxo-1-azabicyclo(3.2.0)hept-2-ene-2-carboxylate [Example 15 "B"] | 0.5 | 1 | 0.016 | 0.004 | 0.008 | 0.5 | 8 | 8 | 0.03 | 0.016 | 0.03 | 0.008 | 0.06 | 0.13 | 0.016 | 0.03 | 2 | 0.13 | 0.016 | 7.4 | PD50/treatment [19]: 0.89 mg/kg; Cmax [20]: 15.9 µg/mL
2 | C[C@@H](O)[C@H]1C(=O)N2C(C(=O)[O-])=C(SCc3cn(CC(=O)O)n[n+]3C)C[C@H]12 [Example 18, Potassium 3-[4-(1-carboxylatomethyl-3-methyl-1,2,3-triazolium)-methanethio]-6α-[1-(R)-hydroxyethyl]-7-oxo-1-azabicyclo[3.2.0]hept-2-ene-2-carboxylate] | – | – | – | – | – | – | – | – | – | – | – | – | – | – | – | – | – | – | – | – | MIC [3, 23]: 32 µg/mL; MIC [4, 24]: > 125 µg/mL; MIC [8, 25]: 32 µg/mL; MIC [10, 26]: 32 µg/mL; MIC ([11]; Proteus vulgaris, A21559, P. vulgaris A21559, read-out: MIC): 32 µg/mL; MIC [12, 27]: 32 µg/mL; MIC [13, 28]: 32 µg/mL; MIC [14, 29]: 32 µg/mL; MIC [15, 30]: 125 µg/mL
3 | Cc1ccc[n+](C)c1CSC1=C(C(=O)[O-])N2C(=O)[C@H]([C@@H](C)O)[C@H]2C1 [Example 7, 3-(N-Methyl-3-methylpyridine-2-methanethio)-6α-[1-(R)-hydroxyethyl]-7-oxo-1-azabicyclo(3.2.0)hept-2-ene-2-carboxylate] | – | – | – | – | – | – | – | – | – | – | – | – | – | – | – | – | – | – | – | – | MIC ([1]; Streptococcus pneumoniae, A9585, S. pneumoniae A-9585, read-out: MIC): 4 ng/mL (≈ 0.0115 µM); MIC ([2]; Streptococcus pyogenes, A9604, S. pyogenes A-9604, read-out: MIC): 4 ng/mL (≈ 0.0115 µM); MIC ([3]; Staphylococcus aureus, A9537, S. aureus A-9537 +50% serum, read-out: MIC): 0.03 µg/mL (≈ 0.0861 µM); MIC [3, 23]: 0.008 µg/mL (≈ 0.023 µM); MIC [4, 24]: 0.016 µg/mL (≈ 0.0459 µM); MIC ([5]; Enterococcus faecalis, A20688, S. faecalis A20688, read-out: MIC): 0.13 µg/mL (≈ 0.373 µM); MIC ([6]; Escherichia coli, read-out: MIC): 4 ng/mL (≈ 0.0115 µM); MIC ([7]; Escherichia coli, A203411, read-out: MIC): 4 ng/mL (≈ 0.0115 µM); MIC [8, 25]: 0.016 µg/mL (≈ 0.0459 µM); MIC ([9]; Klebsiella pneumoniae, A20468, K. pneumoniae A20468, read-out: MIC): 0.016 µg/mL (≈ 0.0459 µM); MIC [10, 26]: 0.016 µg/mL (≈ 0.0459 µM); MIC [12, 27]: 0.016 µg/mL (≈ 0.0459 µM); MIC [13, 28]: 0.06 µg/mL (≈ 0.172 µM); MIC [14, 29]: 0.008 µg/mL (≈ 0.023 µM); MIC [15, 30]: 0.016 µg/mL (≈ 0.0459 µM); MIC ([16]; Pseudomonas aeruginosa, A9843A, read-out: MIC): 1 µg/mL (≈ 2.87 µM); MIC [21]: > 32 µg/mL; MIC [22]: > 32 µg/mL; MIC ([18]; Enterobacter cloacae, A9659, E. cloacae A-9659, read-out: MIC): 0.016 µg/mL (≈ 0.0459 µM)
4 | C[C@@H](O)C1C(=O)N2C(C(=O)[O-])=C(SCc3cn(C)n[n+]3C)CC12 (stereo partly drawn) [Example 15 "C", 3-[4-(N,N-dimethyl-1,2,3-triazolium)methylthio]-6α-[1-(R)-hydroxyethyl]-7-oxo-1-azabicyclo(3.2.0)hept-2-ene-2-carboxylate] | 0.5 (≈ 0.00148 µM) | 0.3 (≈ 0.000887 µM) | 0.06 (≈ 0.177 µM) | 0.016 (≈ 0.0473 µM) | 0.03 (≈ 0.0887 µM) | 0.5 (≈ 1.48 µM) | 60 (≈ 0.177 µM) | 30 (≈ 0.0887 µM) | 0.06 (≈ 0.177 µM) | 0.13 (≈ 0.384 µM) | 0.06 (≈ 0.177 µM) | 0.06 (≈ 0.177 µM) | 0.25 (≈ 0.739 µM) | 0.25 (≈ 0.739 µM) | 0.13 (≈ 0.384 µM) | 0.13 (≈ 0.384 µM) | 8 (≈ 23.6 µM) | 0.5 (≈ 1.48 µM) | 0.13 (≈ 0.384 µM) | 7.3 | T1/2 [20]: 10 min
